Laboratory results from PubChem BioAssay (NCI).
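All cell lines were grown in 96-well plates and treated with compound for 48 hours. GI50 marks 50% less growth. Definition used: TGI = concentration required for complete inhibition of growth.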

Key:
Assay in all cases: NCI-60 cell line screen, 48 h
MDA-MB-468 breast = system: MDA-MB-468 breast
A549 NSCLC = system: A549 NSCLC
HCC-2998 colon = system: HCC-2998 colon
MDA-MB-231 breast = system: MDA-MB-231 breast
NCI-H226 lung = system: NCI-H226 lung
HOP-62 NSCLC = system: HOP-62 NSCLC
CAKI-1 renal = system: CAKI-1 renal
UACC-62 melanoma = system: UACC-62 melanoma
HCT-116 colon = system: HCT-116 colon
HS 578T breast = system: HS 578T breast
MCF7 breast = system: MCF7 breast
LOX IMVI melanoma = system: LOX IMVI melanoma
SN12C renal = system: SN12C renal
SW-620 colon = system: SW-620 colon
NCI/ADR-RES ovarian = system: NCI/ADR-RES ovarian
RXF 393 renal = system: RXF 393 renal
ACHN renal = system: ACHN renal
KM12 colon = system: KM12 colon
SK-OV-3 ovarian = system: SK-OV-3 ovarian
DU-145 prostate = system: DU-145 prostate
MDA-MB-435 = system: MDA-MB-435
SNB-75 CNS = system: SNB-75 CNS
A498 renal = system: A498 renal
HL-60(TB) leukemia = system: HL-60(TB) leukemia
UO-31 renal = system: UO-31 renal
BT-549 breast = system: BT-549 breast
UACC-257 melanoma = system: UACC-257 melanoma
NCI-H460 lung = system: NCI-H460 lung
OVCAR-4 ovarian = system: OVCAR-4 ovarian
SK-MEL-5 melanoma = system: SK-MEL-5 melanoma
SF-539 CNS = system: SF-539 CNS
RPMI-8226 leukemia = system: RPMI-8226 leukemia
U251 CNS = system: U251 CNS
COLO 205 colon = system: COLO 205 colon
HCT-15 colon = system: HCT-15 colon
T-47D breast = system: T-47D breast
OVCAR-3 ovarian = system: OVCAR-3 ovarian
MALME-3M melanoma = system: MALME-3M melanoma
SF-295 CNS = system: SF-295 CNS
OVCAR-5 ovarian = system: OVCAR-5 ovarian
HOP-92 NSCLC = system: HOP-92 NSCLC
CCRF-CEM leukemia = system: CCRF-CEM leukemia
SNB-19 CNS = system: SNB-19 CNS
SK-MEL-28 melanoma = system: SK-MEL-28 melanoma
MOLT-4 leukemia = system: MOLT-4 leukemia
TK-10 renal = system: TK-10 renal
SF-268 CNS = system: SF-268 CNS
NCI-H522 lung = system: NCI-H522 lung
M14 melanoma = system: M14 melanoma
IGROV1 ovarian = system: IGROV1 ovarian
786-0 renal = system: 786-0 renal
SR leukemia = system: SR leukemia
SK-MEL-2 melanoma = system: SK-MEL-2 melanoma
NCI-H23 lung = system: NCI-H23 lung
OVCAR-8 ovarian = system: OVCAR-8 ovarian
K-562 leukemia = system: K-562 leukemia
PC-3 prostate = system: PC-3 prostate
EKVX NSCLC = system: EKVX NSCLC

`O=C(N/N=C/c1ccc(Cl)o1)c1[nH]c2ccc(Br)cc2c1-c1ccccc1` gave a GI50 (MDA-MB-468 breast) of 0.276 µM, a TGI (MDA-MB-468 breast) of 6.37 µM and a GI50 (A549 NSCLC) of 0.383 µM. The TGI (A549 NSCLC) was 32.4 µM, the GI50 (HCC-2998 colon) was 0.38 µM and the TGI (HCC-2998 colon) was 35.1 µM. The GI50 (MDA-MB-231 breast) was 0.316 µM, the TGI (MDA-MB-231 breast) was 12.1 µM and the GI50 (NCI-H226 lung) was 0.619 µM. For the same compound, the TGI (NCI-H226 lung) was 29.6 µM, the GI50 (HOP-62 NSCLC) was 0.472 µM and the TGI (HOP-62 NSCLC) was 27.4 µM. For the same compound, the GI50 (CAKI-1 renal) was 0.389 µM, the TGI (CAKI-1 renal) was 17.9 µM and the GI50 (UACC-62 melanoma) was 0.346 µM. The TGI (UACC-62 melanoma) was greater than 85.9 µM, the GI50 (HCT-116 colon) was 0.128 µM and the TGI (HCT-116 colon) was 3.52 µM. The GI50 (HS 578T breast) was 0.264 µM, the TGI (HS 578T breast) was 16.6 µM and the GI50 (MCF7 breast) was 0.292 µM. It also gave a TGI (MCF7 breast) greater than 100 µM, a GI50 (LOX IMVI melanoma) of 0.276 µM and a TGI (LOX IMVI melanoma) of 14.9 µM. For the same compound, the GI50 (SN12C renal) was 0.377 µM, the TGI (SN12C renal) was 14.2 µM and the GI50 (SW-620 colon) was 0.378 µM. For the same compound, the TGI (SW-620 colon) was 27.2 µM, the GI50 (NCI/ADR-RES ovarian) was 0.168 µM and the TGI (NCI/ADR-RES ovarian) was 0.514 µM. For the same compound, the GI50 (RXF 393 renal) was 0.397 µM, the TGI (RXF 393 renal) was 26.1 µM and the GI50 (ACHN renal) was 0.523 µM. The TGI (ACHN renal) was 21 µM, the GI50 (KM12 colon) was 0.393 µM and the TGI (KM12 colon) was greater than 100 µM. The GI50 (SK-OV-3 ovarian) was 0.567 µM, the TGI (SK-OV-3 ovarian) was greater than 100 µM and the GI50 (DU-145 prostate) was 0.382 µM. It also gave a TGI (DU-145 prostate) of 13.3 µM, a GI50 (MDA-MB-435) of 0.17 µM and a TGI (MDA-MB-435) of 0.542 µM. The GI50 (SNB-75 CNS) was 0.309 µM, the TGI (SNB-75 CNS) was 18.3 µM and the GI50 (A498 renal) was 20.1 µM. It also gave a TGI (A498 renal) of 48.9 µM, a GI50 (HL-60(TB) leukemia) of 0.235 µM and a TGI (HL-60(TB) leukemia) of 0.713 µM. It also gave a GI50 (UO-31 renal) of 0.627 µM, a TGI (UO-31 renal) of 25.9 µM and a GI50 (BT-549 breast) of 0.295 µM. The TGI (BT-549 breast) was 1.75 µM, the GI50 (UACC-257 melanoma) was 3.4 µM and the TGI (UACC-257 melanoma) was greater than 100 µM. It also gave a GI50 (NCI-H460 lung) of 0.328 µM, a TGI (NCI-H460 lung) of 10.6 µM and a GI50 (OVCAR-4 ovarian) of 3.81 µM. For the same compound, the TGI (OVCAR-4 ovarian) was 40.2 µM, the GI50 (SK-MEL-5 melanoma) was 0.247 µM and the TGI (SK-MEL-5 melanoma) was 0.889 µM. It also gave a GI50 (SF-539 CNS) of 0.212 µM, a TGI (SF-539 CNS) of 0.625 µM and a GI50 (RPMI-8226 leukemia) of 0.407 µM. The TGI (RPMI-8226 leukemia) was greater than 40.5 µM, the GI50 (U251 CNS) was 0.34 µM and the TGI (U251 CNS) was 28.1 µM. It also gave a GI50 (COLO 205 colon) of 0.245 µM, a TGI (COLO 205 colon) of 0.549 µM and a GI50 (HCT-15 colon) of 0.343 µM. For the same compound, the TGI (HCT-15 colon) was 33.6 µM, the GI50 (T-47D breast) was 4.53 µM and the TGI (T-47D breast) was greater than 100 µM. For the same compound, the GI50 (OVCAR-3 ovarian) was 0.367 µM, the TGI (OVCAR-3 ovarian) was 14.7 µM and the GI50 (MALME-3M melanoma) was 0.462 µM. The TGI (MALME-3M melanoma) was 49.9 µM, the GI50 (SF-295 CNS) was 0.331 µM and the TGI (SF-295 CNS) was greater than 49.7 µM. It also gave a GI50 (OVCAR-5 ovarian) of 0.388 µM, a TGI (OVCAR-5 ovarian) of 22.1 µM and a GI50 (HOP-92 NSCLC) of 4.2 µM. The TGI (HOP-92 NSCLC) was 43.2 µM, the GI50 (CCRF-CEM leukemia) was 0.351 µM and the TGI (CCRF-CEM leukemia) was 20.2 µM. It also gave a GI50 (SNB-19 CNS) of 0.442 µM, a TGI (SNB-19 CNS) greater than 100 µM and a GI50 (SK-MEL-28 melanoma) of 0.993 µM. The TGI (SK-MEL-28 melanoma) was greater than 61.2 µM, the GI50 (MOLT-4 leukemia) was 0.405 µM and the TGI (MOLT-4 leukemia) was greater than 51.6 µM. For the same compound, the GI50 (TK-10 renal) was 8.98 µM, the TGI (TK-10 renal) was 37.2 µM and the GI50 (SF-268 CNS) was 0.575 µM. For the same compound, the TGI (SF-268 CNS) was greater than 48.1 µM, the GI50 (NCI-H522 lung) was 0.137 µM and the TGI (NCI-H522 lung) was 0.463 µM. The GI50 (M14 melanoma) was 0.278 µM, the TGI (M14 melanoma) was 23.1 µM and the GI50 (IGROV1 ovarian) was 0.401 µM. It also gave a TGI (IGROV1 ovarian) greater than 94.9 µM, a GI50 (786-0 renal) of 0.443 µM and a TGI (786-0 renal) of 8.54 µM. For the same compound, the GI50 (SR leukemia) was 0.458 µM, the TGI (SR leukemia) was greater than 100 µM and the GI50 (SK-MEL-2 melanoma) was 0.423 µM. It also gave a TGI (SK-MEL-2 melanoma) greater than 100 µM, a GI50 (NCI-H23 lung) of 0.417 µM and a TGI (NCI-H23 lung) of 27.3 µM. The GI50 (OVCAR-8 ovarian) was 0.298 µM, the TGI (OVCAR-8 ovarian) was 3.18 µM and the GI50 (K-562 leukemia) was 0.251 µM. The TGI (K-562 leukemia) was greater than 100 µM, the GI50 (PC-3 prostate) was 0.402 µM and the TGI (PC-3 prostate) was greater than 100 µM. The GI50 (EKVX NSCLC) was 0.585 µM and the TGI (EKVX NSCLC) was greater than 100 µM.
